From patent publication US5102897A, “3,5-ditertiarybutyl-4-hydroxyphenyl, 1,3,4-thiadiazoles and oxadiazoles linked by carbon, oxygen, and sulfur residues” (Warner-Lambert Company, priority 1991, dated 1992)

Experiments:
[1] = target: T1, Cyclooxygenase (Rattus norvegicus, UniProt Q63921); assay: ARBC whole cell cyclooxygenase assay (RBL-1 cells, PGF2α formation, RIA); type: cell-based; details: RBL-1 whole cells; for IC50: calcium ionophore A23187 (5 μM), read-out: ARBC: IC50 for PGF2α inhibition; for inhibition at 10 µM: read-out: ARBC: Percent inhibition of PGF2α @ 10 μM
T1 construct: host or cells: RBL-1 (rat basophilic leukemia)
T1 sequence (Q63921 27-602): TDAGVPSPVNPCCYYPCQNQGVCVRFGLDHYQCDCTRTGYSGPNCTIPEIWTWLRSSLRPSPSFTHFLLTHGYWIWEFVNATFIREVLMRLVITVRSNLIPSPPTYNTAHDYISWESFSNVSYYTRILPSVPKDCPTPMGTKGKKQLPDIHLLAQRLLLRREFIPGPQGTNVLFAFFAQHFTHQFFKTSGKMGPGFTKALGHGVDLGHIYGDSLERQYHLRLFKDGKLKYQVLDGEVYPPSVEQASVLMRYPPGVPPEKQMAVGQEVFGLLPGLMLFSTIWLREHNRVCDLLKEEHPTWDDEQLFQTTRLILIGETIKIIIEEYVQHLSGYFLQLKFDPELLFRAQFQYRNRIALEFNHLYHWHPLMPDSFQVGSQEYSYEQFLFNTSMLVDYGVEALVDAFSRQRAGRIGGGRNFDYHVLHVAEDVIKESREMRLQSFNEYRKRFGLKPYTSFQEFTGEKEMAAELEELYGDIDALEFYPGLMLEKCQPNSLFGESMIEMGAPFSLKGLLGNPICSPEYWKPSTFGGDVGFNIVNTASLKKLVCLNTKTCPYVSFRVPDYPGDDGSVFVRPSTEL
Description: (§1) ARBL/ARBC Whole Cell 5-Lipoxygenase and Cyclooxygenase Assays
(§2) The rat basophilic leukemia cell line (RBL-1) was obtained from the American Type Culture Collection (Rockville, MD).
(§3) Radioimmunoassay (RIA) kits of LTB4 and PGF2.sbsb.α were obtained from Amersham (Arlington Heights, Ill.) and Seragen (Boston, Mass.), respectively.
(§4) RBL-1 cells are grown in suspension culture in Eagle's minimum essential medium supplemented with 12% fetal bovine serum at 37° C. in an incubator supplied with air-5% carbon dioxide. Cells are harvested by centrifugation. They are washed with cold phosphate buffered saline pH 7.4 (PBS; NaCl, 7.1 g; Na2 HPO4, 1.15 g; KH2 PO4, 0.2 g; and KCl, 0.2 g/L). Cells are finally suspended in PBS containing 1.0 mM calcium at a density of 2×10^6 cells/mL. Cells are incubated with and without test agent (in DMSO) (1% DMSO is without effect on arachidonic acid metabolism) for ten minutes at room temperature. Calcium ionophore A23187 (5 μM) is added and cells are incubated for 7 minutes at 37° C. The reaction is stopped by chilling the tubes on ice for 10 minutes. Cells are separated by centrifugation and the supernatant is stored at -20° C. Aliquots (100 μL) are analyzed for LTB4 and PGF2.sbsb.α using radioimmunoassay kits as provided by the supplier.
(§5) Table 1 contains biochemical data obtained from this whole cell assay as IC50 s which are calculated as the amount of test compound causing 50% inhibition or percent of inhibition at the named micromoles (μM) of LTB4 or PGF2.sbsb.α formation.

[2] = target: T2, 5-Lipoxygenase (Rattus norvegicus, UniProt P12527); assay: ARBL whole cell 5-lipoxygenase assay (RBL-1 cells, LTB4 formation, RIA); type: cell-based; details: RBL-1 whole cells; for inhibition at 16 µM / inhibition at 10 µM: A23187, read-out: ARBL: Percent inhibition of LTB4 @ μM noted; for IC50: calcium ionophore A23187 (5 μM), read-out: ARBL: IC50 for LTB4 inhibition
T2 construct: host or cells: RBL-1 (rat basophilic leukemia)
T2 sequence (P12527 1-673): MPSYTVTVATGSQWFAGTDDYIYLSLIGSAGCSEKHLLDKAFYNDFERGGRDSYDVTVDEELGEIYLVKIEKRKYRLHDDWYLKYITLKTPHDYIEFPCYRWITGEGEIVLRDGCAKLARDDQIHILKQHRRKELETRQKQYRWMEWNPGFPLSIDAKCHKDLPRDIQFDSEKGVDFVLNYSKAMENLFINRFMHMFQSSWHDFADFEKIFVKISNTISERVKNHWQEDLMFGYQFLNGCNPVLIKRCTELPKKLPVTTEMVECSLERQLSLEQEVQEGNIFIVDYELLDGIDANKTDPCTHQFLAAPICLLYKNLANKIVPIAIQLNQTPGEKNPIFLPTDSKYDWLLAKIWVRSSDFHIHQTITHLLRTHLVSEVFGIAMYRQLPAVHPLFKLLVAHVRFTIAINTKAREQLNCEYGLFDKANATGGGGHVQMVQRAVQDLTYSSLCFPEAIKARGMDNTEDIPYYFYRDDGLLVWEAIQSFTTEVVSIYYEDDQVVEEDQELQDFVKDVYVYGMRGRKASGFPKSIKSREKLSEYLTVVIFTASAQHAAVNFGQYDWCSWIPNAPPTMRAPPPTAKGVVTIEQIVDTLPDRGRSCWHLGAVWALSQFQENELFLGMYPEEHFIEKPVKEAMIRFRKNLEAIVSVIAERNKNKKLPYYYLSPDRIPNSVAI
Description: as §1, §2, §3, §4, §5

[3] = test system: Carrageenan-Induced Rat Foot Paw Edema; assay: Carrageenan-Induced Rat Foot Paw Edema-2 (CFE-2) Assay; type: in vivo; details: dosed 1 hour before carrageenan, edema measured 5 hours after, probit analysis, read-out: CFE: ID40 for inhibition of swelling
Description: Carrageenan-Induced Rat Foot Paw Edema-2 (CFE-2) Assay: Protocol
Carrageenan solution (1% w/v) is prepared by dissolving 100 mg carrageenan (Marine Colloidal Div., Springfield, N.J.) in 10 mL of sterile saline (0.9) solution (Travenol). The solution is vortexed for 30 to 45 minutes. Animals are dosed with compound 1 hour before carrageenan challenge. Foot paw edema is induced by injecting 0.10 mL of the 1% carrageenan subcutaneously into the plantar portion of the right hind paw of each rat under light anesthesia. Initial foot paw volume is measured immediately following carrageenan challenge using mercury plethysmography (Buxco Electronics). Edema is measured 5 hours after carrageenan. The difference between the 5-hour and the initial paw volume is expressed as delta edema. The delta edema for each test group of animals is used to calculate the percent inhibition of edema achieved by the compound at the test dose compared with the vehicle control group. The data in Table 1 (the dose at which swelling is inhibited by the noted) is calculated by probit analysis for the dose at which percent inhibition occurs.

| SMILES | IC50 [2] | inhibition at 10 µM ([1]; A23187) | inhibition at 10 µM [2] | further results |
| --- | --- | --- | --- | --- |
| CC(C)(C)c1cc(Sc2n[nH]c(=O)o2)cc(C(C)(C)C)c1O [Example 6, 5-[[3,5-Bis(1,1-dimethylethyl)-4-hydroxyphenyl]thio]-1,3,4-oxadiazol-2(3H)-one] | – | – | – | ARBC: Percent inhibition of PGF2α ([1]; @ 16 (as printed in the cell), A23187): 46%; inhibition at 16 µM [2]: 91% |
| CC(C)(C)c1cc(Sc2n[nH]c(=S)o2)cc(C(C)(C)C)c1O [Example 7, 5-[[3,5-Bis(1,1-dimethylethyl)-4-hydroxyphenyl]thio]-1,3,4-oxadiazole-2(3H)-thione] | 2000 nM | – | – | IC50 [1]: 1500 nM; ED40 [3]: 8.6 mg/kg |
| CC(C)(C)c1cc(Sc2n[nH]c(=O)s2)cc(C(C)(C)C)c1O [Example 8, 5[[3,5-Bis(1,1-dimethylethyl)-4-hydroxyphenyl]thio]-1,3,4-thiadiazol-2(3H)-one] | – | – | – | inhibition at 16 µM [2]: 90% |
| CC(C)(C)c1cc(Sc2n[nH]c(=S)s2)cc(C(C)(C)C)c1O [Example 9, 5-[[3,5-Bis(1,1-dimethylethyl)-4-hydroxyphenyl]thio]-1,3,4-thiadiazole-2(3H)-thione] | 1100 nM | – | – | IC50 [1]: 3600 nM |
| CC(C)(C)c1cc(Sc2nncs2)cc(C(C)(C)C)c1O [Example 10, 2,6-Bis(1,1-dimethylethyl)-4-[(1,3,4-thiadiazol-2-yl)thio]-phenol] | – | 54% | 59% | – |
| CC(C)(C)c1cc(SCCc2n[nH]c(=O)o2)cc(C(C)(C)C)c1O [Example 13, 5-[2-[[3,5-Bis(1,1-dimethylethyl)-4-hydroxyphenyl]thio]ethyl]-1,3,4-oxadiazol-2(3H)-one] | 600 nM | 75% | – | – |
| CC(C)(C)c1cc(SCCc2n[nH]c(=S)o2)cc(C(C)(C)C)c1O [Example 14, 5-[2-[3,5-Bis(1,1-dimethylethyl)-4-hydroxyphenyl]thio]ethyl-1,3,4-oxadiazole-2(3H)-thione] | 4200 nM | – | – | – |
| CC(C)(C)c1cc(SCCc2nnco2)cc(C(C)(C)C)c1O [Example 15] | – | 55% | 100% | – |
| CC(C)(C)c1cc(SCCc2nnc(N)o2)cc(C(C)(C)C)c1O [Example 16] | – | – | 100% | – |
| CC(C)(C)c1cc(CCc2n[nH]c(=O)o2)cc(C(C)(C)C)c1O [Example 23, 5-[2-[3,5-bis(1,1-dimethylethyl)-4-hydroxyphenyl]ethyl]-1,3,4-oxadiazol-2(3H)-one] | – | – | 60% | – |
| CC(C)(C)c1cc(CCc2nnco2)cc(C(C)(C)C)c1O [Example 25, 2,6-Bis(1,1-dimethylethyl)-4-[2-(1,3,4-oxadiazol-2-yl)ethyl]phenol] | – | 52% | 100% | – |
| CC(C)(C)c1cc(CCc2nnc(N)o2)cc(C(C)(C)C)c1O [Example 26, 4-[2-(5-Amino-1,3,4-oxadiazol-2-yl)ethyl]-2,6-bis(1,1-dimethylethyl)phenol] | – | – | 40% | – |
| CC(C)(C)c1cc(C(=O)c2nnc(N)s2)cc(C(C)(C)C)c1O [Example 29, (5-Amino-1,3,4-thiadiazol-2-yl)[3,5-bis(1,1-dimethylethyl)-4-hydroxyphenyl]methanon] | 1100 nM | – | – | IC50 [1]: 5200 nM |
| CSc1nnc(C(=O)c2cc(C(C)(C)C)c(O)c(C(C)(C)C)c2)s1 [Example 30] | – | 100% | 100% | – |
| CC(C)(C)c1cc(C(=O)c2n[nH]c(=S)s2)cc(C(C)(C)C)c1O [Example 31, [3,5-Bis(1,1-dimethylethyl)-4-hydroxphenyl][5(4H)-thioxo-1,3,4-thiadiazol-2-yl]methanone] | – | 92% | 100% | – |
